{"source": "ChEMBL document CHEMBL1143964", "about": "“Novel pyrazolo[1,5-a]pyrimidines as c-Src kinase inhibitors that reduce IKr channel blockade” (Bioorg Med Chem, 2008)", "key": {"IKr channel [1]": {"biological_target": "T1, IKr channel (Oryctolagus cuniculus, UniProt Q28705)", "T1 sequence (Q28705 whole entry)": "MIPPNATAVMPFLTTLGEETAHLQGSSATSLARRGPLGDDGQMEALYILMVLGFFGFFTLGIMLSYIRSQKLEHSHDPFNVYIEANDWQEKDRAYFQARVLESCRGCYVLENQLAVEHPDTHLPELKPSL", "assay": "Inhibition of Ikr channel in rabbit ventricular myocytes at 10 uM", "format": "cell-based, Ventricular myocyte"}, "[2]": {"biological_target": "T2, Proto-oncogene tyrosine-protein kinase Src (Homo sapiens, UniProt P12931)", "T2 sequence (P12931 2-536 limits assumed)": "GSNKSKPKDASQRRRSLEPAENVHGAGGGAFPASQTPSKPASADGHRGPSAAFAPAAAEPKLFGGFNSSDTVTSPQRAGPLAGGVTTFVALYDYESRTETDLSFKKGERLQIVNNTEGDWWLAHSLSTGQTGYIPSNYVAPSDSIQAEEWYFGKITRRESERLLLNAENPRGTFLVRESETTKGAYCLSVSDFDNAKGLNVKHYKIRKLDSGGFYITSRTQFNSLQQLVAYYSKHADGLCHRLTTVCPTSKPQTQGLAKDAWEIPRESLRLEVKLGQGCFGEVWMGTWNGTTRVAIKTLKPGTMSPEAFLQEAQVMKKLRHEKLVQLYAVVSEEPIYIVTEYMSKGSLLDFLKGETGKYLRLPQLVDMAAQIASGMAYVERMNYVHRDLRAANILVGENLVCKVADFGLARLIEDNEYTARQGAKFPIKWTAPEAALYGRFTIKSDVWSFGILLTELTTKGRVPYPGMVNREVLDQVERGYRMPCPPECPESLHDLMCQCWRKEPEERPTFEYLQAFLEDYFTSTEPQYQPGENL", "assay": "Inhibition of human cSrc"}, "IKr channel [3]": {"biological_target": "T1, IKr channel", "assay": "Inhibition of Ikr channel in rabbit ventricular myocytes at 30 uM"}, "[4]": {"biological_target": "T2, Proto-oncogene tyrosine-protein kinase Src", "assay": "Inhibition of human cSrc in COS7 cells by ELISA", "format": "cell-based, COS-7"}, "[5]": {"assay": "Drug level in Sprague-Dawley rat plasma at 3 mg/kg, iv after 1 hr", "format": "ADME, organism-based", "set-up": "dose 3 mg/kg, route intravenous"}, "[6]": {"assay": "Ratio of drug level in brain to plasma in Sprague-Dawley rat at 3 mg/kg, iv after 1 hr", "format": "ADME, organism-based", "set-up": "dose 3 mg/kg, route intravenous", "settings": "read-out: BPR"}, "[7]": {"assay": "Drug level in Sprague-Dawley rat brain at 3 mg/kg, iv after 1 hr", "format": "ADME, organism-based", "set-up": "dose 3 mg/kg, route intravenous", "settings": "read-out: Drug uptake"}, "[8]": {"biological_target": "Tyrosine-protein kinase SYK (Homo sapiens, UniProt P43405)", "assay": "Inhibition of Syk"}, "[9]": {"biological_target": "Tyrosine-protein kinase Lck (Homo sapiens, UniProt P06239)", "sequence (P06239 whole entry)": "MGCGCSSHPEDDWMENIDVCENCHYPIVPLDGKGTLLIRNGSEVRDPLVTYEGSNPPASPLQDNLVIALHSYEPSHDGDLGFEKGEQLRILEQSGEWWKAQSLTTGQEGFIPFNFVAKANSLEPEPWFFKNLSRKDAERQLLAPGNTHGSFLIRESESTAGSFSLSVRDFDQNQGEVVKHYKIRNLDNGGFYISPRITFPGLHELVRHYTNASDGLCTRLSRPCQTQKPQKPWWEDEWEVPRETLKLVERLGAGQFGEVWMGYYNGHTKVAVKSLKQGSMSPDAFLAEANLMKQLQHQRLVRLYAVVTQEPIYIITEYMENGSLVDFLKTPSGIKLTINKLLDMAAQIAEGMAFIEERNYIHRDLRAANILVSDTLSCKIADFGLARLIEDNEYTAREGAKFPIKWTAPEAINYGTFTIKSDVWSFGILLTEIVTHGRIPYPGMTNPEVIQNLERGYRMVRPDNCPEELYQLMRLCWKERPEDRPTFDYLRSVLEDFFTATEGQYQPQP"}, "[10]": {"assay": "Volume of distribution at steady state in Sprague-Dawley rat middle cerebral artery occlusion model at 3 mg/kg, iv", "format": "ADME, organism-based", "set-up": "dose 3 mg/kg, route intravenous", "settings": "in vivo, read-out: Vdss"}, "[11]": {"biological_target": "Epidermal growth factor receptor (Homo sapiens, UniProt P00533)", "sequence (P00533 whole entry)": "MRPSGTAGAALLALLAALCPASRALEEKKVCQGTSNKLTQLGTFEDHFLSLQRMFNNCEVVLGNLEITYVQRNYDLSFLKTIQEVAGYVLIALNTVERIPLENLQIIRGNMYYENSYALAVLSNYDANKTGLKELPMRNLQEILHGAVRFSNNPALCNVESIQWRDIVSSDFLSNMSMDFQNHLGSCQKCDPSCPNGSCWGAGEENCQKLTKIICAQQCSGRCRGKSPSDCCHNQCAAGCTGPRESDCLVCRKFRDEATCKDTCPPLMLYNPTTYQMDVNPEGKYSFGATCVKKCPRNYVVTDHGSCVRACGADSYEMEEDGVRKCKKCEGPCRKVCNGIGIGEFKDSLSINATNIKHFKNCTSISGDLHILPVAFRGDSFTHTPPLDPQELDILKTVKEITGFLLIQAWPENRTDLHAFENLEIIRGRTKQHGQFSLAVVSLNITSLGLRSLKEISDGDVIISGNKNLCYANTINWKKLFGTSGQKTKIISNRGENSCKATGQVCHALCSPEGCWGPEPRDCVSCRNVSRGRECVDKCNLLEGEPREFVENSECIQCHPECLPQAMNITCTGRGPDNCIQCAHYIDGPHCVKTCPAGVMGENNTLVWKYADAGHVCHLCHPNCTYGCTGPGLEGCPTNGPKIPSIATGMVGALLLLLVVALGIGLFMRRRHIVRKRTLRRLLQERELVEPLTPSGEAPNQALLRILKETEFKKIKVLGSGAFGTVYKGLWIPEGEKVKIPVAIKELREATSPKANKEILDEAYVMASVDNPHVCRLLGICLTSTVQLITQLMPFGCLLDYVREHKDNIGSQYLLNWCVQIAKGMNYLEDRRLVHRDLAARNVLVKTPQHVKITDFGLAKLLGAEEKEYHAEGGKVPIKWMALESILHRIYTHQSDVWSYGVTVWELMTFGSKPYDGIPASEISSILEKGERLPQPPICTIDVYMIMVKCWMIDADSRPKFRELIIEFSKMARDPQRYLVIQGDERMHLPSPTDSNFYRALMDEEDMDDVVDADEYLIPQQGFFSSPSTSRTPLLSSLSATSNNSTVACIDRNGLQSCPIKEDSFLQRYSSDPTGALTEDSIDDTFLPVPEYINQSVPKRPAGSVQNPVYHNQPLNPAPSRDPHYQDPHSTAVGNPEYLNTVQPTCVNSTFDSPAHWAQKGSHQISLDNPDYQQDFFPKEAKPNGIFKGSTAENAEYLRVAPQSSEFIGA"}, "[12]": {"biological_target": "T3, Tyrosine-protein kinase ZAP-70 (Homo sapiens, UniProt P43403)", "T3 sequence (P43403 whole entry)": "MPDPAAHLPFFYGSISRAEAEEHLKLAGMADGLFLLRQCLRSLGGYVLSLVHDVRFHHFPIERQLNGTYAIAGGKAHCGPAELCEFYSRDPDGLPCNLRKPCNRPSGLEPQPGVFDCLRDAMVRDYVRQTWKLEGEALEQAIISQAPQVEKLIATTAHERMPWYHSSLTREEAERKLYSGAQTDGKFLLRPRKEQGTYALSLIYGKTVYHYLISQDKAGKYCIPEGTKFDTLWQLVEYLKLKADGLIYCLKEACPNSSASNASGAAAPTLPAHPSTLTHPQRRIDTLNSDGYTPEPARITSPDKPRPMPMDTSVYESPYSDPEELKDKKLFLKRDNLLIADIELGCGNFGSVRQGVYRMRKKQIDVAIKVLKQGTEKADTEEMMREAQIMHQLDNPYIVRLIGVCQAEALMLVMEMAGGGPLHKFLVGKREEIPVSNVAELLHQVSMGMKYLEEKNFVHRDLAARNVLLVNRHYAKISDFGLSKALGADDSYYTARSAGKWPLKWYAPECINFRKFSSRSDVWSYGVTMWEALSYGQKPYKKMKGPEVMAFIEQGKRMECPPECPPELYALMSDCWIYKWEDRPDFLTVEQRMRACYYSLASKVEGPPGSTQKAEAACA", "assay": "Inhibition of ZAP"}, "[13]": {"biological_target": "Vascular endothelial growth factor receptor 2 (Homo sapiens, UniProt P35968)", "sequence (P35968 whole entry)": "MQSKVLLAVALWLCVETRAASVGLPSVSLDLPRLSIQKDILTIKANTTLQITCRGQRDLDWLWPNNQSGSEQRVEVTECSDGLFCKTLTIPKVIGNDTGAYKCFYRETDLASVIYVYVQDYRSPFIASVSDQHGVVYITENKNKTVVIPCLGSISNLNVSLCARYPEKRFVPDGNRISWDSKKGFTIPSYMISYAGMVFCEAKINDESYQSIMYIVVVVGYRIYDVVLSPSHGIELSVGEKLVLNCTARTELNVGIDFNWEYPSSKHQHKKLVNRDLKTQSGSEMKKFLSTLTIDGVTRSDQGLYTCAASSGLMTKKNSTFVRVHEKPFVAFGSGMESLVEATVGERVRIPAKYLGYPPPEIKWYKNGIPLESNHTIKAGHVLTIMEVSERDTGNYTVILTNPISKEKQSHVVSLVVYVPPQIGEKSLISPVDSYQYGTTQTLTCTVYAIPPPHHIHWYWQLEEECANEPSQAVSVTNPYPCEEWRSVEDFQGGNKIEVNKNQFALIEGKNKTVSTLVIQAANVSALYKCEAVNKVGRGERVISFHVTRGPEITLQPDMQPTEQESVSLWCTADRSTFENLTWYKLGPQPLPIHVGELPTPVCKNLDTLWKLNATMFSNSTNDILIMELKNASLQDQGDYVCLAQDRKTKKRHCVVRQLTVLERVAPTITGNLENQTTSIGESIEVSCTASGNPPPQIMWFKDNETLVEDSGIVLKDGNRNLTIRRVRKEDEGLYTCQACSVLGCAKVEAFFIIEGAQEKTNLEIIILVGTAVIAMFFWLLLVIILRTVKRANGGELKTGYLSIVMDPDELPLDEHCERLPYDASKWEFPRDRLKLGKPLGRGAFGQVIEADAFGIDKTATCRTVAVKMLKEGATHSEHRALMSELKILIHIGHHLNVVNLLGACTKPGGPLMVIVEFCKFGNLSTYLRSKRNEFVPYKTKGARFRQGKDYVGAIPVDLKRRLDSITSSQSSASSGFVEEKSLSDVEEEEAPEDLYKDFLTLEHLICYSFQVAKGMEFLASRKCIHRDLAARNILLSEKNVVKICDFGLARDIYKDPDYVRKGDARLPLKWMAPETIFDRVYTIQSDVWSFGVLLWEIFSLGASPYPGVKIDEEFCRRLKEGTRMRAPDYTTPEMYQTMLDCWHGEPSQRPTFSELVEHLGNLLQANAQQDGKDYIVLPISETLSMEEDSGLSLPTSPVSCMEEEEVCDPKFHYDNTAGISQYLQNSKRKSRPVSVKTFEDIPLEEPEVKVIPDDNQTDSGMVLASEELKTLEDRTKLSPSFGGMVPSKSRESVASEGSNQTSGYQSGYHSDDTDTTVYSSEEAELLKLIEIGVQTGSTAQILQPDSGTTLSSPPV", "assay": "Inhibition of KDR"}, "[14]": {"assay": "Half life in Sprague-Dawley rat middle cerebral artery occlusion model at 3 mg/kg, iv", "format": "ADME, organism-based", "set-up": "dose 3 mg/kg, route intravenous", "settings": "in vivo"}, "[15]": {"assay": "AUC (0 to infinity) in Sprague-Dawley rat middle cerebral artery occlusion model at 3 mg/kg, iv", "format": "ADME, organism-based", "set-up": "time infinity, dose 3 mg/kg, route intravenous", "settings": "in vivo"}, "[16]": {"biological_target": "Protein kinase C beta type (Homo sapiens, UniProt P05771)", "sequence (P05771 whole entry)": "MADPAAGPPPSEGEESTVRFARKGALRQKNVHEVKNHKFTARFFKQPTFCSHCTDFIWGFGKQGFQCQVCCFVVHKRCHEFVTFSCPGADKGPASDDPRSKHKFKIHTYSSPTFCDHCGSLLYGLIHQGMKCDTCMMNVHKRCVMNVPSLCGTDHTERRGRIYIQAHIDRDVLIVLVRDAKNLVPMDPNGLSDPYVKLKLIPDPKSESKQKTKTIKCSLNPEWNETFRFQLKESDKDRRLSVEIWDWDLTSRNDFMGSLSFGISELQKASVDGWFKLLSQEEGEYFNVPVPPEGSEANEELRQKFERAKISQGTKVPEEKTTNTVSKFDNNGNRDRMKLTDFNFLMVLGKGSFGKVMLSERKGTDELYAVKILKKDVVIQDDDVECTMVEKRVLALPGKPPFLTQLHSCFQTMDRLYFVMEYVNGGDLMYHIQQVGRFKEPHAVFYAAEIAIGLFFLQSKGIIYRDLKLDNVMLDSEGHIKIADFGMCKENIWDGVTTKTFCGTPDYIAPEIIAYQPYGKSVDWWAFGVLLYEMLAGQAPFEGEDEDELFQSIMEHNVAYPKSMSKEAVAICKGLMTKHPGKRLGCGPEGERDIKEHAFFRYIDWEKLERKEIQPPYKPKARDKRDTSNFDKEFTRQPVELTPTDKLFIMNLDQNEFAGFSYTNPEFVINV", "assay": "Inhibition of PKCbeta"}, "[17]": {"assay": "Clearance in Sprague-Dawley rat middle cerebral artery occlusion model at 3 mg/kg, iv", "format": "ADME, organism-based", "set-up": "dose 3 mg/kg, route intravenous", "settings": "in vivo"}}, "data": [{"smiles": "COc1cc(Nc2nn3c(NC[C@@H](C)N)cc(C)nc3c2C(N)=O)cc(OC)c1", "values": [{"measurement": "inhibition at 10 µM", "setting": "IKr channel [1]", "result": 47.9, "unit": "%"}, {"measurement": "IC50", "setting": "[2]", "result": 408, "unit": "nM"}]}, {"smiles": "COc1cc(Nc2nn3c(N[C@@H](CO)C(C)C)cc(-c4ccccc4)nc3c2C(N)=O)cc(OC)c1", "values": [{"measurement": "inhibition at 30 µM", "setting": "IKr channel [3]", "result": 12.4, "unit": "%"}, {"measurement": "IC50", "setting": "[2]", "result": 68, "unit": "nM"}]}, {"smiles": "COc1cc(Nc2nn3c(NC[C@H](C)O)cc(C)nc3c2C(N)=O)cc(OC)c1", "values": [{"measurement": "IC50", "setting": "[2]", "result": 9200, "unit": "nM"}]}, {"smiles": "COc1cc(Nc2nn3c(N[C@@H](CO)C(C)C)cc(C)nc3c2C(N)=O)cc(OC)c1", "values": [{"measurement": "IC50", "setting": "[2]", "result": 432, "unit": "nM"}]}, {"smiles": "COc1cc(Nc2nn3c(NCC(C)(C)N)cc(C)nc3c2C(N)=O)cc(OC)c1", "values": [{"measurement": "inhibition at 10 µM", "setting": "IKr channel [1]", "result": 90.7, "unit": "%"}, {"measurement": "IC50", "setting": "[4]", "result": 900, "unit": "nM"}, {"measurement": "IC50", "setting": "[2]", "result": 175, "unit": "nM"}]}, {"smiles": "COc1cc(Nc2nn3c(N[C@H](CO)Cc4c[nH]c5ccccc45)cc(C4CC4)nc3c2C(N)=O)cc(OC)c1", "values": [{"measurement": "concentration at 1 h", "setting": "[5]", "result": 80, "unit": "ng/mL"}, {"measurement": "inhibition at 30 µM", "setting": "IKr channel [3]", "result": 5.4, "unit": "%"}, {"measurement": "Kp at 1 h", "setting": "[6]", "result": 1.1}, {"measurement": "IC50", "setting": "[4]", "result": 500, "unit": "nM"}, {"measurement": "IC50", "setting": "[2]", "result": 5, "unit": "nM"}, {"measurement": "concentration at 1 h", "setting": "[7]", "result": 89, "unit": "ng/g"}]}, {"smiles": "COc1cc(Nc2nn3c(N[C@@H](CO)Cc4ccccc4)cc(C4CC4)nc3c2C(N)=O)cc(OC)c1", "values": [{"measurement": "IC50", "setting": "[2]", "result": 12, "unit": "nM"}]}, {"smiles": "COc1cc(Nc2nn3c(N[C@H](CO)Cc4ccccc4)cc(C4CC4)nc3c2C(N)=O)cc(OC)c1", "values": [{"measurement": "IC50", "setting": "[8]", "result": "> 10000", "unit": "nM"}, {"measurement": "IC50", "setting": "[9]", "result": 7, "unit": "nM"}, {"measurement": "Vd", "setting": "[10]", "result": 0.53, "unit": "L/kg"}, {"measurement": "concentration at 1 h", "setting": "[5]", "result": 273, "unit": "ng/mL"}, {"measurement": "IC50", "setting": "[11]", "result": 2400, "unit": "nM"}, {"measurement": "inhibition at 30 µM", "setting": "IKr channel [3]", "result": 23.4, "unit": "%"}, {"measurement": "IC50", "setting": "[12]", "result": "> 10000", "unit": "nM"}, {"measurement": "Kp at 1 h", "setting": "[6]", "result": 0.9}, {"measurement": "IC50", "setting": "[4]", "result": 100, "unit": "nM"}, {"measurement": "IC50", "setting": "[13]", "result": "> 10000", "unit": "nM"}, {"measurement": "half-life", "setting": "[14]", "result": 22, "unit": "min"}, {"measurement": "AUC(0-inf)", "setting": "[15]", "result": 1990, "unit": "ng·h/mL"}, {"measurement": "IC50", "setting": "[2]", "result": 3, "unit": "nM"}, {"measurement": "IC50", "setting": "[16]", "result": "> 10000", "unit": "nM"}, {"measurement": "clearance", "setting": "[17]", "result": 25, "unit": "mL/min/kg"}, {"measurement": "concentration at 1 h", "setting": "[7]", "result": 256, "unit": "ng/g"}]}, {"smiles": "COc1cc(Nc2nn3c(N[C@H](CO)Cc4cccnc4)cc(C4CC4)nc3c2C(N)=O)cc(OC)c1", "values": [{"measurement": "concentration at 1 h", "setting": "[5]", "result": 81, "unit": "ng/mL"}, {"measurement": "IC50", "setting": "[4]", "result": 100, "unit": "nM"}, {"measurement": "IC50", "setting": "[2]", "result": 5, "unit": "nM"}]}, {"smiles": "COc1cc(Nc2nn3c(N4CCC[C@@H]4CO)cc(C4CC4)nc3c2C(N)=O)cc(OC)c1", "values": [{"measurement": "inhibition at 30 µM", "setting": "IKr channel [3]", "result": 14.2, "unit": "%"}, {"measurement": "IC50", "setting": "[2]", "result": 9, "unit": "nM"}]}, {"smiles": "COc1cc(Nc2nn3c(N4CCC[C@H]4CO)cc(C4CC4)nc3c2C(N)=O)cc(OC)c1", "values": [{"measurement": "IC50", "setting": "[2]", "result": 25, "unit": "nM"}]}, {"smiles": "COc1cc(Nc2nn3c(N[C@@H](CO)C(C)C)cc(C(C)C)nc3c2C(N)=O)cc(OC)c1", "values": [{"measurement": "inhibition at 30 µM", "setting": "IKr channel [3]", "result": 14.6, "unit": "%"}, {"measurement": "IC50", "setting": "[2]", "result": 41, "unit": "nM"}]}, {"smiles": "COc1cc(Nc2nn3c(N[C@@H](CO)C(C)C)cc(C4CC4)nc3c2C(N)=O)cc(OC)c1", "values": [{"measurement": "concentration at 1 h", "setting": "[5]", "result": 346, "unit": "ng/mL"}, {"measurement": "Kp at 1 h", "setting": "[6]", "result": 0.4}, {"measurement": "IC50", "setting": "[4]", "result": 100, "unit": "nM"}, {"measurement": "IC50", "setting": "[2]", "result": 8, "unit": "nM"}, {"measurement": "concentration at 1 h", "setting": "[7]", "result": 126, "unit": "ng/g"}]}, {"smiles": "COc1cc(Nc2nn3c(N[C@H](CO)C(C)C)cc(C)nc3c2C(N)=O)cc(OC)c1", "values": [{"measurement": "IC50", "setting": "[2]", "result": 1210, "unit": "nM"}]}, {"smiles": "COc1cc(Nc2nn3c(NC[C@H](C)N)cc(C)nc3c2C(N)=O)cc(OC)c1", "values": [{"measurement": "inhibition at 10 µM", "setting": "IKr channel [1]", "result": 99.1, "unit": "%"}, {"measurement": "IC50", "setting": "[2]", "result": 2990, "unit": "nM"}]}, {"smiles": "COc1cc(Nc2nn3c(N[C@@H](C)CO)cc(C)nc3c2C(N)=O)cc(OC)c1", "values": [{"measurement": "IC50", "setting": "[2]", "result": 3480, "unit": "nM"}]}, {"smiles": "COc1cc(Nc2nn3c(NC[C@@H](C)O)cc(C)nc3c2C(N)=O)cc(OC)c1", "values": [{"measurement": "IC50", "setting": "[2]", "result": 6690, "unit": "nM"}]}]}
